Reference: patent US11091476B2, “Protein kinase inhibitors, preparation method and medical use thereof” (Gan & Lee Pharmaceuticals, priority 2015, dated 2021)

Columns and labels:
[1] = biological target: CDK6/CyclinD3 (Homo sapiens (Human), UniProt Q00534); test: CDK kinase inhibitory activity, ADP-Glo Kinase Assay, CDK6/CyclinD3; type: biochemical; conditions: for CDK1/CDK6: ratio of IC50s, selectivity for CDK6 over CDK1
Experimental: (§1) Measurement of CDK kinase inhibitory activity of the compounds of this disclosure.
(§2) In vitro inhibitory effect of the compounds of the disclosure on CDK (CDK1, CDK4 and CDK6) kinase activity was tested by the following method.
(§3) 1.1 Instrument and Kit Information
(§4) 1.2 Experimental Preparation • 1.2.1 Preparation of Kinase Reaction Buffer I: The 5×Reaction Buffer A (Promega; V307A-C) provided in the kit was mixed and diluted with MILLI-Q® H2O and 0.1 M DTT (dithiothreitol) to give 4× kinase buffer, and then MILLI-Q® H2O was further added to finally formulate the solution into 1× Kinase buffer.
(§5) 1 μl of 10 mM standard substance stock solution was taken and added to 9 μl of kinase reaction buffer I and mixed well; then 90 μl of kinase reaction buffer I was added and mixed well; then 100 μl of kinase reaction buffer I was added and mixed well. The final concentration was 50 μM. • b. 40 μl of kinase reaction buffer II was added into B2 to B10 of a 96-well plate, and 50 μl of the above solution was added into B1; • c. 10 μl of solution was taken from well B1, added into B2, and mixed well; then 10 μl of the resulting solution was taken and added into B3, and dilution was carried out in sequence to B9, so as to obtain control solutions that are diluted by 5-fold sequentially. • (2) Preparation of test compound solution: • a. Test compound solutions at a certain concentration were taken, respectively, diluted with kinase reaction buffer I to a final concentration of 50 μM compound solution; • b. 40 μl of kinase reaction buffer II was added into H2 to H10 of the 96-well plate; and 50 μl of the above solution was added into H1; • c. 10 μl of solution was taken from well H1, added into H2, and mixed well; then 10 μl of the resulting solution was taken and added into H3, and dilution was carried out in sequence to H9, so as to obtain test compound solutions that are diluted by 5-fold sequentially. • 1.2.4 Preparation of a mixed solution of reaction substrate and ATP: • a. Preparation of ATP solution: • 200 μl of 0.1 mM ATP solution: 2 μl of 10 mM ATP was added to 198 μl of kinase reaction buffer I; • 300 μl of 50 μM ATP solution: 150 μl of kinase reaction buffer I was added to 150 μl of the above 0.1 mM ATP solution; • b. Preparation of 300 μl of reaction substrate solution: • 150 μl 1 μg/μl reaction substrate stock solution was added to 150 μl kinase reaction buffer I, and mixed well; • c. The above a/b solutions were mixed to obtain mixed solutions, respectively.
(§6) 1.3 Experimental process: • 1.3.1: 2 μl of compound solutions of various concentrations were taken, added to a 384-well plate, and centrifuged 3 minutes; • 1.3.2: 4 μl of kinase solution was added to each well, centrifuged at 5000 rpm and 18° C. for 10 minutes, and shaken on a plate shaker for 10 minutes; • 1.3.3: 4 μl of mixed solution of substrate and ATP was added to each well, centrifuged at 5000 rpm and 18° C. for 10 minutes, and shaken on a plate shaker at 37° C. for 90 minutes; • 1.3.4: The 384-well plate was taken out, and allowed to stand to room temperature; • 1.3.5: 10 μl of ADP-GLO™ reagent was added to each well, centrifuged at 5000 rpm and 18° C. for 18 minutes, and shaken on a plate shaker at 25° C. for 40 minutes, and then the reaction was stopped; • 1.3.6: 20 μl of kinase detection reagent was added to each well, centrifuged at 5000 rpm and 18° C. for 10 minutes, and shaken on a plate shaker at 25° C. for 30 minutes; and • 1.3.7: M1000pro MICROPLATE READER was used to read […] values.
(§7) The inhibition rate of each compound at each concentration point was calculated by the formula as follows and curve fitting was performed by GraphPad Prism 5 software to obtain the IC50 value.

[2] = biological target: CDK1/CyclinA2 (Homo sapiens (Human), UniProt P06493); test: CDK kinase inhibitory activity, ADP-Glo Kinase Assay, CDK1/CyclinA2; type: biochemical
Experimental: as §1, §2, §3, §4, §5, §6, §7

| Compound | IC50 [1] [nM] | IC50 [2] [nM] | CDK1/CDK6 [1] |
| --- | --- | --- | --- |
| CCC1(C)C(C)=Nc2c(F)cc(-c3nc(Nc4ccc(CN5CCN(C)CC5)cn4)ncc3F)cc21 (stereo not drawn) [Example 42, 4-(3-ethyl-7-fluoro-2,3-dimethyl-3H-indol-5-yl)-5-fluoro-N-(5-((4-methylpiperazin-1-yl)methyl)pyridin-2-yl)pyrimidine-2-amino] | 2.33 | – | – |
| CCN1CCN(Cc2ccc(Nc3ncc(F)c(-c4cc(F)c5c(c4)C(C)(C)C(C)=N5)n3)nc2)CC1 [Example 2, N-(5-((4-ethylpiperazin-1-yl)methyl)pyridin-2-yl)-5-fluoro-4-(7-fluoro-2,3,3-trimethyl-3H-indol-5-yl)pyrimidine-2-amino] | 159 | – | – |
| CC1=Nc2c(F)cc(-c3nc(Nc4ccc(OC5CCN(C)CC5)cn4)ncc3F)cc2C12CCCC2 [Example 45, N-(5-((1-methylpiperidin-4-yl)oxy)-pyridin-2-yl)-5-fluoro-4-(7′-fluoro-2′-methylspiro[cyclopentane-1,3′-indol]-5′-yl)pyrimidine-2-amino] | 43.9 | – | – |
| CCC1(CC)C(C)=Nc2c(F)cc(-c3nc(Nc4ccc(C5CCN(C)CC5)cn4)ncc3F)cc21 [Example 38, 4-(3,3-diethyl-7-fluoro-2-methyl-3H-indol-5-yl)-5-fluoro-N-(5-(1-methylpiperidin-4-yl)pyridin-2-yl)pyrimidine-2-amino] | 0.2 | 19.8 | 99.15 |
| CC1=Nc2c(F)cc(-c3nc(Nc4ccc5c(n4)CCN(C(=O)CO)C5)ncc3F)cc2C12CCCC2 [Example 40, 1-(2-((5-fluoro-4-(7′-fluoro-2′-methylspiro[cyclopentane-1,3′-indol]-5′-yl)pyrimidin-2-yl)amino)-7,8-dihydro-1,6-naphthyridine-6 (5H)-yl)-2-hydroxyacetamide] | 25 | 162 | 6.47 |
| CCN1CCN(Cc2ccc(Nc3nccc(-c4cc(F)c5c(c4)C4(CCCC4)C(C)=N5)n3)nc2)CC1 [Example 8, N-(5-((4-ethylpiperazin-1-yl)methyl)pyridin-2-yl)-4-(7′-fluoro-2′-methylspiro [cyclopentane-1,3′-indol]-5′-yl)pyrimidine-2-amino] | 85.8 | – | – |
| CCC1(CC)C(C)=Nc2c(F)cc(-c3nc(Nc4ccc(N5CCNCC5)cn4)ncc3F)cc21 [Example 29, 4-(3,3-diethyl-7-fluoro-2-methyl-3H-indol-5-yl)-5-fluoro-N-(5-(piperazin-4-yl)pyridin-2-yl)pyrimidine-2-amino] | 3.15 | 82.4 | 26.20 |
| CCN1CCN(Cc2ccc(Nc3ncc(F)c(-c4cc(F)c5c(c4)C4(CCC4)C(C)=N5)n3)nc2)CC1 [Example 4, N-(5-((4-ethylpiperazin-1-yl)methyl)pyridin-2-yl)-5-fluoro-4-(7′-fluoro-2′-methylspiro[cyclobutane-1,3′-indol]-5′-yl)aminopyrimidine-2-amino] | 2150 | – | – |
| CCC1(C)C(C)=Nc2ccc(-c3nc(Nc4ccc(N5CCN(C)CC5)cn4)ncc3F)cc21 (stereo not drawn) [Example 34, 4-(3-ethyl-2,3-dimethyl-3H-indol-5-yl)-5-fluoro-N-(5-(4-methylpiperazin-1-yl)pyridin-2-yl)pyrimidine-2-amino] | 5.13 | – | 21.75 |
| CC1=Nc2c(F)cc(-c3nc(Nc4ccc(C5CCN(C)CC5)c(C)n4)ncc3F)cc2C12CCCC2 [Example 44, N-(5-(1-methylpiperidin-4-yl)-(6-methylpyridin)-2-yl)-5-fluoro-4-(7′-fluoro-2′-methylspiro[cyclopentane-1,3′-indol]-5′-yl)pyrimidine-2-amino] | 37.5 | – | – |
| CCN1CCN(c2ccc(Nc3ncc(F)c(-c4cc(F)c5c(c4)C(C)(CC)C(C)=N5)n3)nc2)CC1 (stereo not drawn) [Example 19, 4-(3-ethyl-7-fluoro-2,3-dimethyl-3H-indol-5-yl)-N-(5-(4-ethylpiperazin-1-yl)pyridin-2-yl)-5-fluoropyrimidine-2-amino] | 65.5 | – | 0.99 |
| CCC1(C)C(C)=Nc2ccc(-c3nc(Nc4ccc(C5CCN(C)CC5)cn4)ncc3F)cc21 (stereo not drawn) [Example 35, 4-(3-ethyl-2,3-dimethyl-3H-indol-5-yl)-5-fluoro-N-(5-(1-methylpiperidin-4-yl)-pyridin-2-yl)pyrimidine-2-amino] | 8.74 | 64 | 7.33 |
| CCN1CCN(c2ccc(Nc3ncc(F)c(-c4ccc5c(c4)C(C)(CC)C(C)=N5)n3)nc2)CC1 (stereo not drawn) [Example 36, 4-(3-ethyl-2,3-dimethyl-3H-indol-5-yl)-N-(5-(4-ethylpiperazin-1-yl)pyridin-2-yl)-5-fluoropyrimidine-2-amino] | 3.79 | – | 26.65 |
| CCC1(C)C(C)=Nc2ccc(-c3nc(Nc4ccc(C5CCNCC5)cn4)ncc3F)cc21 (stereo not drawn) [Example 33, 4-(3-ethyl-2,3-dimethyl-3H-indol-5-yl)-5-fluoro-N-(5-(piperidin-4-yl)pyridin-2-yl)pyrimidine-2-amino] | 15.6 | – | 10.65 |
| CC1=Nc2c(F)cc(-c3nc(Nc4ccc(CN5CCN(C)CC5)cn4)ncc3F)cc2C12CCCC2 [Example 43, 5-Fluoro-4-(7′-fluoro-2′-methylspiro[cyclopentane-1,3′-indol]-5′-yl)-N-(5-((4-methylpiperazin-1-yl)methyl)pyridin-2-yl)pyrimidine-2-amino] | 0.9 | 269 | 298.78 |
| CCN1CCC(c2ccc(Nc3ncc(F)c(-c4ccc5c(c4)C4(CCCC4)C(C)=N5)n3)nc2)CC1 [Example 21, N-(5-(1-ethylpiperidin-4-yl)pyridin-2-yl)-5-fluoro-4-(2′-methylspiro[cyclopentane-1,3′-indol]-5′-yl)pyrimidine-2-amino] | 27.7 | 135 | 4.89 |
| CC1=Nc2c(F)cc(-c3nc(Nc4ccc(N5CCN(CC6CC6)CC5)cn4)ncc3F)cc2C12CCCC2 [Example 41, N-(5-(4-(cyclopropylmethyl)piperazin-1-yl)pyridin-2-yl)-5-fluoro-4-(7′-fluoro-2′-methylspiro[cyclopentane-1,3′-indol]-5′-yl)pyrimidine-2-amino] | 76.6 | – | – |
| CCC1(C)C(C)=Nc2c(F)cc(-c3nc(Nc4ccc5c(n4)CCN(C(=O)CO)C5)ncc3F)cc21 (stereo not drawn) [Example 39, 1-(2-((4-(3-Ethyl-7-fluoro-2,3-dimethyl-3H-indol-5-yl)-5-fluoropyrimidin-2-yl)amino)-7,8-dihydro-1,6-naphthyridine-6 (5H)-yl)-2-hydroxyacetamide] | 5.65 | 38.5 | 6.82 |
| CCN1CCN(c2ccc(Nc3ncc(F)c(-c4cc(F)c5c(c4)C4(CCCC4)C(C)=N5)n3)nc2)CC1 [Example 27, N-(5-(4-ethylpiperazin-1-yl)pyridin-2-yl)-5-fluoro-4-(7′-fluoro-2′-methylspiro [cyclopentane-1,3′-indol]-5′-yl)pyrimidine-2-amino] | 16.2 | – | – |
| CCC1(C)C(C)=Nc2ccc(-c3nc(Nc4ccc(N5CCNCC5)cn4)ncc3F)cc21 (stereo not drawn) [Example 32, 4-(3-ethyl-2,3-dimethyl-3H-indol-5-yl)-5-fluoro-N-(5-(piperazin-1-yl)pyridin-2-yl)pyrimidine-2-amino] | 10.1 | – | 14.01 |
| CC1=Nc2c(F)cc(-c3nc(Nc4ccc(C5CCN(C)CC5)cn4)ncc3F)cc2C1(C)C [Example 31, 5-Fluoro-4-(7-fluoro-2,3,3-trimethyl-3H-indol-5-yl)-N-(5-(1-methylpiperidin-4-yl)pyridin-2-yl)pyrimidine-2-amino] | 58.8 | – | – |
| CCC1(C)C(C)=Nc2c(F)cc(-c3nc(Nc4ccc(C5CCNCC5)cn4)ncc3F)cc21 (stereo not drawn) [Example 11] | 5.62 | – | 19.58 |
